Assay results: patent publication US20250024871A1, “AMIDE COMPOUNDS AND THEIR USE AS FLAVOR MODIFIERS” (Firmenich Incorporated, priority 2021, published 2025)

Biological target: T1, T1R umami taste receptor (Homo sapiens, UniProt Q7RTX0+Q7RTX1)
T1 sequence (Q7RTX1 21-841): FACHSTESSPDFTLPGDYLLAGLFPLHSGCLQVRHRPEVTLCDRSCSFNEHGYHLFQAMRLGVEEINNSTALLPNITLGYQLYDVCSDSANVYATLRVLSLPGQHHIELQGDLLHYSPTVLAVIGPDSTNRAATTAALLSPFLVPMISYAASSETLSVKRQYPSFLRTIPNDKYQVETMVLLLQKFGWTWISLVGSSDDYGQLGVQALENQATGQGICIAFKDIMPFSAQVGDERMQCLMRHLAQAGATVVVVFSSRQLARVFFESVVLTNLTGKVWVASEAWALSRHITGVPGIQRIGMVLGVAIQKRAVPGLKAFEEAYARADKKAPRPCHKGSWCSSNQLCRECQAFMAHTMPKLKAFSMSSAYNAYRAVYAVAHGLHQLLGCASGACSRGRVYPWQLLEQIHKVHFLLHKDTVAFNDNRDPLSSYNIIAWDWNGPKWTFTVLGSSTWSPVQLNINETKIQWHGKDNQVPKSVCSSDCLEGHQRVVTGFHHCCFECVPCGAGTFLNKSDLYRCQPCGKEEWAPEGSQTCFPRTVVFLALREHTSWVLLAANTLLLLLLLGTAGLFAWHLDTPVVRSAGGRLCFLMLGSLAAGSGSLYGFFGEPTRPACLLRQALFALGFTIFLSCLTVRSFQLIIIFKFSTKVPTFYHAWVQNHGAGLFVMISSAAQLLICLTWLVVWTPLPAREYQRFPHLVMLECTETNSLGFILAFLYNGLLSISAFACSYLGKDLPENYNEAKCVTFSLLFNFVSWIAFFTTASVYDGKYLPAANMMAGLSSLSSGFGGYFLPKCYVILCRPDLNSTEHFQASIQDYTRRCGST
T1 sequence (Q7RTX0 21-852): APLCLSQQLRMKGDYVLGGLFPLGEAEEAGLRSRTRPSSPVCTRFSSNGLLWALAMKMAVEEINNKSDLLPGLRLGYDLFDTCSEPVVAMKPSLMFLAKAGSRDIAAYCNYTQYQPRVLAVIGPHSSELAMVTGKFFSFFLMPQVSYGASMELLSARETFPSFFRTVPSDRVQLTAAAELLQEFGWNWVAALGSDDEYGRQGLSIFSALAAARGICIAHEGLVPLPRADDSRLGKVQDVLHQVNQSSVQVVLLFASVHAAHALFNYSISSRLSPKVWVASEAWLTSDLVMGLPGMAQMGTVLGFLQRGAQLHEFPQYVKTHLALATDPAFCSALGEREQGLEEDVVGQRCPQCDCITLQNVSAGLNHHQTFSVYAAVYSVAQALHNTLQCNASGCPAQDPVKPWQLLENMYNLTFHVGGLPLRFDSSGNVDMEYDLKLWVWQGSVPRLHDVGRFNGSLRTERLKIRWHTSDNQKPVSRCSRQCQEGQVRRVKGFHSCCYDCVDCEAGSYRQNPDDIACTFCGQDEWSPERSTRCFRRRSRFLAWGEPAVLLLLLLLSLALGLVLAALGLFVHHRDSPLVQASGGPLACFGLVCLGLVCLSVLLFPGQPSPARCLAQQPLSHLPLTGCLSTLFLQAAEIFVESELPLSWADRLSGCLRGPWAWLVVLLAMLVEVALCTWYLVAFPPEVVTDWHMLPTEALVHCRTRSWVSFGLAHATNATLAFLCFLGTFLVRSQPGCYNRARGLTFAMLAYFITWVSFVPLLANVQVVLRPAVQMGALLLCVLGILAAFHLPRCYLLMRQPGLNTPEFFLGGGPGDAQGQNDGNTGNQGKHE
Assay: in vitro cell-based assay having cells that express the T1R umami taste receptor (enhancement of MSG)
Settings: for EC50: cells expressing T1R umami taste receptor, read-out: EC50 for enhancement of MSG binding
Protocol: Each of Compounds 101-183 was synthesized according to one of the general procedures set forth above in Examples 1. Thereafter, the compounds were tested in an in vitro cell-based assay having cells that express the T1R umami taste receptor. Dose-binding curves were recorded and the EC50 was determined for enhancement of MSG binding. Table 2 sets forth the calculated EC50 values for certain tested compounds as well as the MSG enhancement ratio at a particular concentration.

Row | SMILES | EC50 | MSG Enh. Ratio (compound at 50 μM) | MSG Enh. Ratio (compound at 10 μM) | MSG Enh. Ratio (compound at 0.3 μM)
1 | COC(=O)[C@H](Cc1ccccc1)NC(=O)c1ccc(OC)cc1 [Compound 105, Methyl (4-methoxybenzoyl)-L-phenylalaninate] | 36 µM | 6.5 @ | – | –
2 | CCOC(=O)[C@H](CCSC)NC(=O)/C=C/C(C)C [Compound 170, Ethyl (E)-(4-methylpent-2-enoyl)-L-methioninate] | – | – | 3.5 @ | –
3 | CCOC(=O)[C@H](Cc1ccccc1)NC(=O)/C=C/c1ccccc1 [Compound 141, Ethyl cinnamoyl-L-phenylalaninate] | – | – | 5.5 @ | –
4 | CCOC(=O)CC[C@H](NC(=O)/C=C/c1ccc(OCC)cc1)C(=O)OCC [Compound 156, Diethyl (E)-(3-(4-ethoxyphenyl)acryloyl)-L-glutamate] | 4 µM | – | – | –
5 | CCC/C=C/C(=O)N[C@@H](Cc1ccccc1)C(=O)OC [Compound 176, Methyl (E)-hex-2-enoyl-L-phenylalaninate] | – | 8.4 @ | – | –
6 | COC(=O)[C@H](Cc1ccccc1)NC(=O)c1ccccn1 [Compound 112, Methyl picolinoyl-L-phenylalaninate] | > 50 µM | 2.8 @ | – | –
7 | CCOC(=O)[C@@H](NC(=O)/C=C/c1ccc2c(c1)OCO2)C(C)C [Compound 159, Ethyl (E)-(3-(benzo[d][1,3]dioxol-5-yl)acryloyl)-L-valinate] | > 50 µM | 5.8 @ | – | –
8 | CCOC(=O)[C@H](Cc1ccccc1)NC(=O)/C=C/c1ccc(OC)c(OC)c1 [Compound 158, Ethyl (E)-(3-(3,4-dimethoxyphenyl)acryloyl)-L-phenylalaninate] | – | – | 4.8 @ | –
9 | C/C=C/C=C/C(=O)N[C@H](C(=O)OCC)[C@@H](C)CC [Compound 183, Ethyl ((2E,4E)-hexa-2,4-dienoyl)-L-isoleucinate] | > 50 µM | 2.8 @ | – | –
10 | CCOC(=O)CC[C@H](NC(=O)/C=C/c1ccc2c(c1)OCO2)C(=O)OCC [Compound 161, Diethyl (E)-(3-(benzo[d][1,3]dioxol-5-yl)acryloyl)-L-glutamate] | > 20 µM | – | 2.9 @ | –
11 | COC(=O)[C@H](Cc1ccccc1)NC(=O)/C=C/c1ccc(OC)cc1 [Compound 146, Methyl (E)-(3-(4-methoxyphenyl)acryloyl)-L-phenylalaninate] | 1 µM | – | – | 6.4 @
12 | C/C=C/C=C/C(=O)N[C@@H](CCC(=O)OCC)C(=O)OCC [Compound 182, Diethyl ((2E,4E)-hexa-2,4-dienoyl)-L-glutamate] | > 50 µM | 3.4 @ | – | –
13 | COC(=O)[C@@H](NC(=O)c1ccc2c(c1)OCO2)C(C)C [Compound 127, Methyl (benzo[d][1,3]dioxole-5-carbonyl)-L-valinate] | > 50 µM | 3.4 @ | – | –
14 | CCOC(=O)[C@@H](CC(C)C)NC(=O)c1ccc(C)cc1 [Compound 102, Ethyl (4-methylbenzoyl)-D-leucinate] | < 2 µM | – | – | –
15 | CCOC(=O)[C@@H](NC(=O)c1cccc(OC)c1)C(C)C [Compound 108, Ethyl (3-methoxybenzoyl)-L-valinate] | > 50 µM | 2.7 @ | – | –
16 | CCOC(=O)[C@@H](NC(=O)/C=C/c1ccccc1)[C@@H](C)CC [Compound 137, Ethyl cinnamoyl-L-isoleucinate] | – | 4.3 @ | – | –
17 | COC(=O)[C@H](Cc1ccccc1)NC(=O)/C=C/c1cc(OC)ccc1OC [Compound 157, Methyl (E)-(3-(2,5-dimethoxyphenyl)acryloyl)-L-phenylalaninate] | > 50 µM | 3.1 @ | – | –
18 | CCOC(=O)[C@H](Cc1ccccc1)NC(=O)c1ccc(C)c(C)c1 [Compound 120, Ethyl (3,4-dimethylbenzoyl)-L-phenylalaninate] | 12 µM | – | 4.6 @ | –
